According to patent US6750224B1, “Antibacterial optically pure benzoquinolizine carboxylic acids, processes, compositions and methods of treatment” (priority 1999, dated 2004):
Values after ≈ are worked out from the molar mass of the structure shown. Where two headings read alike, the source gives them in different places.

Experiments:
[1] = system: MRSA STA-4; test: In-vitro antimicrobial activity test (MIC, NCCLS); assay type: cell-based, Staphylococcus aureus
Text: (§1) The test method was in accordance with the standard NCCLS protocol.

[2] = system: Mupirocin-resistant Staph STA-34; test: In-vitro antimicrobial activity test (MIC, NCCLS); assay type: cell-based, Staphylococcus aureus
Text: as §1

[3] = system: MRSE STE-22; test: In-vitro antimicrobial activity test (MIC, NCCLS); assay type: cell-based, Staphylococcus epidermidis
Text: as §1

[4] = system: Bacteroides fragilis; test: In-vitro antimicrobial activity test (MIC, NCCLS); assay type: cell-based
Text: as §1

[5] = system: Chryseobacterium meningosepticum; test: In-vitro antimicrobial activity test (MIC, NCCLS); assay type: cell-based
Text: as §1

[6] = system: Corynebacterium jeikeium; test: In-vitro antimicrobial activity test (MIC, NCCLS); assay type: cell-based
Text: as §1

[7] = system: Enterococcus faecalis ATCC 29212; test: In-vitro antimicrobial activity test (MIC, NCCLS); assay type: cell-based
Text: as §1

[8] = system: Enterococcus faecium; test: In-vitro antimicrobial activity test (MIC, NCCLS); assay type: cell-based
Text: as §1

[9] = system: Escherichia coli ATCC 25922; test: In-vitro antimicrobial activity test (MIC, NCCLS); assay type: cell-based
Text: as §1

[10] = system: Haemophilus influenzae; test: In-vitro antimicrobial activity test (MIC, NCCLS); assay type: cell-based
Text: as §1

[11] = system: Mycobacterium avium; test: In-vitro antimicrobial activity test (MIC, NCCLS); assay type: cell-based
Text: as §1

[12] = system: Mycobacterium intracellulare; test: In-vitro antimicrobial activity test (MIC, NCCLS); assay type: cell-based
Text: as §1

[13] = system: Mycobacterium tuberculosis ATCC 27294; test: In-vitro antimicrobial activity test (MIC, NCCLS); assay type: cell-based
Text: as §1

[14] = system: Propioni bacterium acnes; test: In-vitro antimicrobial activity test (MIC, NCCLS); assay type: cell-based
Text: as §1

[15] = system: Pseudomonas aeruginosa; test: In-vitro antimicrobial activity test (MIC, NCCLS); assay type: cell-based
Text: as §1

[16] = system: Serratia marcescens; test: In-vitro antimicrobial activity test (MIC, NCCLS); assay type: cell-based
Text: as §1

[17] = system: Staphylococcus aureus ATCC 25923; test: In-vitro antimicrobial activity test (MIC, NCCLS); assay type: cell-based
Text: as §1

[18] = system: Streptococcus pneumoniae ATCC 6303; test: In-vitro antimicrobial activity test (MIC, NCCLS); assay type: cell-based
Text: as §1

[19] = system: Streptococcus pyogenes; test: In-vitro antimicrobial activity test (MIC, NCCLS); assay type: cell-based
Text: as §1

[20] = system: Viridans group Streptococci; test: In-vitro antimicrobial activity test (MIC, NCCLS); assay type: cell-based
Text: as §1

[21] = in vivo; parameters: species or system Swiss mice; conditions: Swiss, mouse, po, 30 mg/kg
Method: The blood levels of RS-(±)-Nadifloxacin and S-(−)-Nadifloxacin administered orally to Swiss mice at a dose of 30mg/kg are shown in Table 3 with respect to the AUC (μg/ml.hr), monitored from 15 minutes to 4 hours.

[22] = Acute intravenous toxicity in mice; conditions: mouse, in vivo, iv
[23] = system: Acinetobacter 3109; test: Effect of pH on potency of fluoroquinolones (MIC at pH 5.5 and 7.0); assay type: cell-based; conditions: MIC pH 7 vs pH 5.5
Text: (§2) The test method was in accordance with the standard NCCLS protocol employing test media adjusted at pH 5.5 and 7.0.

[24] = system: E. coli 2015; test: as above; assay type: cell-based; conditions: MIC pH 7 vs pH 5.5
Text: as §2

[25] = system: E. coli 25922; test: as above; assay type: cell-based; conditions: MIC pH 7 vs pH 5.5
Text: as §2

[26] = system: E. faecalis; test: as above; assay type: cell-based; conditions: MIC pH 7 vs pH 5.5
Text: as §2

[27] = system: Klebsiella 24037; test: as above; assay type: cell-based; conditions: MIC pH 7 vs pH 5.5
Text: as §2

[28] = system: P. mirabilis 37; test: as above; assay type: cell-based; conditions: MIC pH 7 vs pH 5.5
Text: as §2

[29] = system: P. rettgeri N 1764; test: as above; assay type: cell-based; conditions: MIC pH 7 vs pH 5.5
Text: as §2

[30] = system: P. vulgaris 66; test: as above; assay type: cell-based; conditions: MIC pH 7 vs pH 5.5
Text: as §2

[31] = system: Ps. Aeruginosa; test: as above; assay type: cell-based; conditions: MIC pH 7 vs pH 5.5
Text: as §2

[32] = system: S. aureus 1199-B; test: as above; assay type: cell-based; conditions: MIC pH 7 vs pH 5.5
Text: as §2

[33] = system: S. aureus 25923; test: as above; assay type: cell-based; conditions: MIC pH 7 vs pH 5.5
Text: as §2

[34] = system: Serratia marcescens 2702; test: as above; assay type: cell-based; conditions: MIC pH 7 vs pH 5.5
Text: as §2

[35] = system: S.aureus strain bearing Nor A efflux pump; assay type: cell-based; conditions: Nor A efflux pump strain vs strain devoid of efflux pump
Method: Using this set of MIC values, % loss in potency due to efflux was calculated for each of the fluoroquinolone in Table 5

[36] = Equilibrium moisture content determination at several relative humidities; assay type: physicochemical; conditions: Karl Fischer
Text: Silica (anhydrous) and three saturated solutions of electrolytes prepared by dissolving the respective salts in water were each introduced into different desiccators to control the inner relative humidity to a specific value as represented in the following Table 7. Then, the equilibrium moisture contents of S-(−)-9-fluoro-6,7-dihydro-8-(4-hydroxypiperidin-1-yl)-5-methyl-1-oxo-1H,5H-benzo[i,j]quinolizine-2-carboxylic acid anhydrate and S-(−)-9-fluoro-6,7-dihydro-8-(4-hydroxypiperidin-1-yl)-5-methyl-1-oxo-1H,5H-benzo[i,j]quinolizine-2-carboxylic acid 0.2 hydrate prepared in Examples 1 and 2 respectively were determined at several relative humidities.
Specifically, 1 g of the sample was spread on a pre-weighed petridish and the total weight was accurately measured, then both the samples were placed in each desiccator of Table 8 The dessicators were allowed to stand at normal temperature for at least 3 days and the weight was measured agingly over this period. The weight changes were tabulated. At the end of 3 days all samples were taken to be weighed. The moisture content of each sample was determined by Karl Fischer analysis. Equilibrium moisture content at each relative humidity is represented in FIG. 1 (anhydrate) and FIG. 2 (0.2 hydrate).

[37] = Chemical stability under heating (HPLC); assay type: physicochemical
Method: The anhydride and hydrates were each introduced into a glass vial and maintained at 70° C. Thus the thermal decomposition with elapsed time was analysed by HPLC and the results thus obtained are described in Table 8

## CC1CCc2c(N3CCC(O)CC3)c(F)cc3c(=O)c(C(=O)O)cn1c23 (racemic) [RS-(±)-Nadifloxacin, (±)-9-fluoro-8-(4-hydroxypiperidin-1-yl)-5-methyl-6,7-dihydro-1-oxo-1H-5H-benzo[i,j]quinolizine-2-carboxylic acid]
[1]
  MIC: 0.8 µg/mL (≈ 2.22 µM)
[2]
  MIC: 1.56 µg/mL (≈ 4.33 µM)
[3]
  MIC: 1.56 µg/mL (≈ 4.33 µM)
[4]
  MIC: 3.12 µg/mL (≈ 8.66 µM)
[5]
  MIC: 1.56 µg/mL (≈ 4.33 µM)
[6]
  MIC: 0.2 µg/mL (≈ 0.555 µM)
[7]
  MIC: 0.4 µg/mL (≈ 1.11 µM)
[8]
  MIC: 0.8 µg/mL (≈ 2.22 µM)
[9]
  MIC: 0.8 µg/mL (≈ 2.22 µM)
[10]
  MIC: 0.05 µg/mL (≈ 0.139 µM)
[11]
  MIC: 6.25 µg/mL (≈ 17.3 µM)
[12]
  MIC: 3.12 µg/mL (≈ 8.66 µM)
[13]
  MIC: 1.56 µg/mL (≈ 4.33 µM)
[14]
  MIC: 0.2 µg/mL (≈ 0.555 µM)
[15]
  MIC: 3.12 µg/mL (≈ 8.66 µM)
[16]
  MIC: 1.56 µg/mL (≈ 4.33 µM)
[17]
  MIC: 0.05 µg/mL (≈ 0.139 µM)
[18]
  MIC: 0.4 µg/mL (≈ 1.11 µM)
[19]
  MIC: 0.4 µg/mL (≈ 1.11 µM)
[20]
  MIC: 0.4 µg/mL (≈ 1.11 µM)
[21]
  AUC: 16900 ng·h/mL
[22]
  LD50: 311 mg/kg

## O=C(O)c1cn(C2CC2)c2cc(N3CCNCC3)c(F)cc2c1=O [Ciprofloxacin]
[23]
  % change in potency at pH 5.5, loss (−)/gain (+): −97%
[24]
  % change in potency at pH 5.5, loss (−)/gain (+): −94%
[25]
  % change in potency at pH 5.5, loss (−)/gain (+): −97.5%
[26]
  % change in potency at pH 5.5, loss (−)/gain (+): −87.5%
[27]
  % change in potency at pH 5.5, loss (−)/gain (+): −97%
[28]
  % change in potency at pH 5.5, loss (−)/gain (+): −96%
[29]
  % change in potency at pH 5.5, loss (−)/gain (+): −94%
[30]
  % change in potency at pH 5.5, loss (−)/gain (+): −96%
[31]
  % change in potency at pH 5.5, loss (−)/gain (+): −87%
[32]
  % change in potency at pH 5.5, loss (−)/gain (+): −75%
[33]
  % change in potency at pH 5.5, loss (−)/gain (+): −75%
[34]
  % change in potency at pH 5.5, loss (−)/gain (+): −99%

## NC1CCN(c2c(F)cc3c(=O)c(C(=O)O)cn(C4CC4)c3c2Cl)C1 (centres unmarked) [Clinafloxacin]
[35]
  % loss in potency for S. aureus bearing Efflux pump: 87.5%

## C[C@H]1CCc2c(N3CCC(O)CC3)c(F)cc3c(=O)c(C(=O)O)cn1c23 [Example 1, S-(−)-9-fluoro-6,7-dihydro-8-(4-hydroxypiperidin-1-yl)-5-methyl-1-oxo-1H,5H-benzo[i,j]quinolizine-2-carboxylic acid anhydrate]
[36]; relative humidity 20% to 58%
  equilibrium moisture content: around 0.1%
[36]; relative humidity 75% to 95%
  equilibrium moisture content: around 1%
[37]; 1 week, HPLC
  Thermal stability with elapsed time at 70° C.: 98.7%
[37]; 2 week, HPLC
  Thermal stability with elapsed time at 70° C.: 98.6%
[37]; Initial, HPLC
  Thermal stability with elapsed time at 70° C.: 98.9%

## C[C@H]1CCc2c(N3CCC(O)CC3)c(F)cc3c(=O)c(C(=O)O)cn1c23.O [Example 2, S-(−)-9-fluoro-6,7-dihydro-8-(4-hydroxypiperidin-1-yl)-5-methyl-1-oxo-1H,5H-benzo[i,j]quinolizine-2-carboxylic acid 0.2 hydrate]
[36]; relative humidity 20% to 95%
  equilibrium moisture content: around 1%
[37]
  Thermal stability with elapsed time at 70° C.: 98.7%
  chemical stability at 70° C., in words: same degree of chemical stability as the anhydrate

## C[C@H]1CCc2c(N3CCC(O)CC3)c(F)cc3c(=O)c(C(=O)O)cn1c23.C[C@H]1CCc2c(N3CCC(O)CC3)c(F)cc3c(=O)c(C(=O)O)cn1c23.O [Example 3, S-(−)-9-fluoro-6,7-dihydro-8-(4-hydroxypiperidin-1-yl)-5-methyl-1-oxo-1H,5H-benzo[i,j]quinolizine-2-carboxylic acid 0.5 hydrate]
[37]
  Thermal stability with elapsed time at 70° C.: 98.1%
  chemical stability at 70° C., in words: decompose with time

## C[C@H]1CCc2c(N3CCC(O)CC3)c(F)cc3c(=O)c(C(=O)O)cn1c23.O [Example 4, S-(−)-9-fluoro-6,7-dihydro-8-(4-hydroxypiperidin-1-yl)-5-methyl-1-oxo-1H,5H-benzo[i,j]quinolizine-2-carboxylic acid 0.75 hydrate]
[37]
  Thermal stability with elapsed time at 70° C.: 98.3%
  chemical stability at 70° C., in words: decompose with time
